From patent US20050265954A1, “Novel association, a method of its preparation and its uses” (ADAMED, Sp. z.o.o., priority 2004, published 2005)

Experiments:
[1] = Light absorption spectra and complex formation in phosphate buffer; format: physicochemical; conditions: phosphate buffer 0.05M, pH 8.5, chlorin p6 1.9·10^−5M
Text: The absorption spectra of the above-obtained associations of polyvinylpyrrolidone with chlorin p6 in the phosphate buffer (0.05M, pH 8.5) are shown on FIG. 1 for the following chlorin p6/polyvinylpyrrolidone ratios (by weight): (1) 1:1; (2) 1:15; (3) 1:40; (4) 1:200; and (5) 1:1000. The concentration of chlorin p6 was 1.9·10^−5M in all investigated solutions.
The chlorin p6-polyvinylpyrrolidone complex has an absorption maximum in the long-wave region of visible light, and this maximum is shifted towards longer wavelengths (664 nm) compared to free chlorin p6, which has an absorption maximum at 656 nm. Therefore, the use of the association according to the invention as a photosensitizer allows for deeper penetration of radiation into biological tissues, which allows for treating solid tumors and/or deeply located lesions.
Formation of the complex of polyvinylpyrrolidone with chlorin p6 results in a series of changes in the absorption spectrum. […]
FIG. 2 presents the experimentally obtained percent of red shift of the absorption maximum of the complex in relation to the content of polyvinylpyrrolidone. […] The spectra were recorded for a series of the solutions of the complex in the phosphate buffer (pH 8.5) at the chlorin p6 concentration of 1.9·10^−5M.

[2] = system: Walker-256 carcinosarcoma; experiment: Inhibition of neoplasm's growth, Walker-256 carcinosarcoma; format: in vivo, rats; conditions: 2.5 mg/kg intraperitoneally, 200 J/cm^2
Method: The use of the association according to the invention allows to achieve a high level of the tumor growth inhibition. In order to confirm this effect, the studies were performed using white rats with implanted neoplasms (Walker-256 carcinosarcoma). A solution of the photosensitizer was administered intraperitoneally at doses of 2.5 mg/kg and the tumor was […] at the radiation dose of 200 J/cm^2. The observation was continued for 21 days following the therapy. FIG. 3 and Table 7 show the dynamics of changes of the absolute rate of the tumor growth, resulting from the use of the association according to the invention (1:15) as well as free chlorin p6. The control group consisted of untreated animals.

[3] = system: Pliss' lymphosarcoma; experiment: Tumor necrosis after photodynamic therapy, Pliss' lymphosarcoma; format: in vivo; conditions: rats, photosensitizer 2.5 mg/kg, laser 660 nm, 50 J/cm^2
Method: The studies were performed on white not-inbred laboratory rats having subcutaneously implanted tumors (Pliss' lymphosarcoma). The dose of the administered photosensitizer was 2.5 mg/kg. The necrosis area was estimated based on the functional condition of the tumor's vascular system following laser irradiation (660 nm) at the radiation dose of 50 J/cm^2, when accumulation of the photosensitizer was the highest.
After 24 hours since the photodynamic therapy, the animals were intravenously given a solution of Evans blue in physiologic saline at the dose of 1.0 ml/100 g of body weight.

[4] = reference standard; cited from earlier work

| Structure (SMILES) | Absorption maximum in the long-wave region of visible light [1] | Neoplasm's growth ([2]; 3 days after photodynamic therapy) | Neoplasm's growth ([2]; 7 days after photodynamic therapy) | Neoplasm's growth ([2]; 10 days after photodynamic therapy) | Neoplasm's growth ([2]; 14 days after photodynamic therapy) | Neoplasm's growth ([2]; 21 days after photodynamic therapy) | Resumption of tumor growth following the therapy ([2]; observation 21 days) | Depth of necrosis [3] | Necrosis area [3] | Quantum yield of the singlet-state oxygen (φλ) of the reference solution [4] |
| --- | --- | --- | --- | --- | --- | --- | --- | --- | --- | --- |
| C=Cc1c(C)c2cc3nc(c(C(=O)O)c4[nH]c(cc5nc(cc1[nH]2)C(C)=C5CC)c(C)c4C(=O)O)[C@@H](CCC(=O)O)[C@@H]3C (relative stereo) [chlorin p6, 13-carboxy-17-[2-carboxyethyl]-15-carboxy-17,18-trans-dihydro-3-vinyl-8-ethyl-2,7,12,18-tetramethylporphyrin] | 656 nm | 0% | 0% | 3% | 8% | 12% | the tumor growth resumes after 10 days | 7 mm | 46.3% | – |
| O=S(=O)([O-])c1ccc(-c2c3nc(c(-c4ccc(S(=O)(=O)[O-])cc4)c4ccc([nH]4)c(-c4ccc(S(=O)(=O)[O-])cc4)c4nc(c(-c5ccc(S(=O)(=O)[O-])cc5)c5ccc2[nH]5)C=C4)C=C3)cc1.[Na+].[Na+].[Na+].[Na+] [TSFP, tetrasodium phenylporphyrintetrasulfonate] | – | – | – | – | – | – | – | – | – | 0.7 |
